Experimental data reported in US20230257374A1, “NOVEL KRAS G12C PROTEIN INHIBITOR, PREPARATION METHOD THEREFOR, AND USE THEREOF” (INNOVENT BIOLOGICS (SUZHOU) CO., LTD., priority 2019, published 2023).

Molecular target: T1, KRAS G12C protein (Homo sapiens, UniProt P01116, G12C)
T1 construct: H358 cells (ATCC, CRL-5807) expressing KRAS G12C protein; host or cells: H358 (NCI-H358) cells
Test: ERK protein phosphorylation assay (p-ERK) in H358 cells
Type: cell-based
Parameters: scale not given here
Conditions: H358 cells expressing KRAS G12C protein, 3 h incubation with compound; read-out: IC50, inhibiting phosphorylation of KRAS G12C protein-mediated downstream signaling (p-ERK)
Protocol: The cells were cultured in a 5% CO2 cell incubator for 16 h. The serially diluted compound was added to the cell medium with Echo550 at a final DMSO concentration of 0.5%, and the incubation was continued for 3 h. Then 8% paraformaldehyde (Solarbio, P1112) was added at 40 μL/well, followed by incubation at room temperature for 20 min. After one washing with PBS, cold 100% methanol was added at 40 μL/well for permeabilization for 10 min. […] Washing with PBST was performed 3 times, with 2 min of incubation for each washing. […] Washing with PBST was performed 3 times, with 2 min of incubation for each washing. Finally, the cell culture plate was inverted and centrifuged at 1000 rpm for 1 min, after which fluorescence signals were read using Odyssey CLx.

T1 sequence (P01116 1-188 isoform P01116-2 G12C): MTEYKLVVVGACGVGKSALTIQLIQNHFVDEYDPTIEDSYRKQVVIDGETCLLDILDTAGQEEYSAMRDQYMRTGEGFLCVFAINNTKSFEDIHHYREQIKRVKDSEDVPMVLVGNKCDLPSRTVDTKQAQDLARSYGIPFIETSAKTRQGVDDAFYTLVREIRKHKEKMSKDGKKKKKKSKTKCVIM

IC50, < 1 µM:
[2H]C([2H])([2H])c1cccc2cccc(N3CCc4c(nc(OC[C@@H]5CCCN5C)nc4N4CCN(C(=O)C(=C)F)[C@@H](CC#N)C4)C3)c12 [Compound 2, 2-((S)-1-(2-fluoroacryloyl)-4-(7-(8-(methyl-d3)naphthalen-1-yl)-2-(((S)-1-methylpyrrolidin-2-yl)methoxy)-5,6,7,8-tetrahydropyrido[3,4-d]pyrimidin-4-yl)piperazin-2-yl)acetonitrile]
[2H]C([2H])([2H])c1cccc2cccc(N3CCc4c(nc(OC[C@@H]5CCCN5C)nc4N4CCN(C(=O)/C=C/CNC5CC5)[C@@H](C)C4)C3)c12 [Compound 3, (E)-4-(cyclopropylamino)-1-((S)-2-methyl-4-(7-(8-(methyl-d3)naphthalen-1-yl)-2-(((S)-1-methylpyrrolidin-2-yl)methoxy)-5,6,7,8-tetrahydropyrido[3,4-d]pyrimidin-4-yl)piperazin-1-yl)-2-buten-1-one]
[2H]C([2H])([2H])c1cccc2cncc(N3CCc4c(nc(OC[C@@H]5CCCN5C)nc4N4CCN(C(=O)C=C)[C@@H](CC#N)C4)C3)c12 [Compound 4, 2-((S)-1-acryloyl-4-(7-(5-(methyl-d3)isoquinolin-4-yl)-2-(((S)-1-methylpyrrolidin-2-yl)methoxy)-5,6,7,8-tetrahydropyrido[3,4-d]pyrimidin-4-yl)piperazin-2-yl)acetonitrile]
[2H]C([2H])([2H])c1cccc2cccc(N3CCc4c(nc(OC[C@@H]5CCCN5C)nc4N4CCN(C(=O)C(=C)F)[C@@H](C)C4)C3)c12 [Compound 5, 2-fluoro-1-((S)-2-methyl-4-(7-(8-(methyl-d3)naphthalen-1-yl)-2-(((S)-1-methylpyrrolidin-2-yl)methoxy)-5,6,7,8-tetrahydropyrido[3,4-d]pyrimidin-4-yl)piperazin-1-yl)-2-propen-1-one]
C=CC(=O)N1CCN(c2nc(OC[C@@H]3CCCN3C)nc3c2CCN(c2cccc4cccc([11CH3])c24)C3)C[C@@H]1CC#N [Compound 6, 2-((S)-1-acryloyl-4-(7-(8-(methyl-^11C)naphthalen-1-yl)-2-(((S)-1-methylpyrrolidin-2-yl)methoxy)-5,6,7,8-tetrahydropyrido[3,4-d]pyrimidin-4-yl)piperazin-2-yl)acetonitrile]
[2H]C([2H])([2H])c1cccc2cccc(N3CCc4c(nc(OC[C@@H]5CCCN5C)nc4N4CCN(C(=O)C(=C)F)C[C@@H]4C)C3)c12 [Compound 7, 2-fluoro-1-((S)-3-methyl-4-(7-(8-(methyl-d3)naphthalen-1-yl)-2-(((S)-1-methylpyrrolidin-2-yl)methoxy)-5,6,7,8-tetrahydropyrido[3,4-d]pyrimidin-4-yl)piperazin-1-yl)-2-propen-1-one]
[2H]C([2H])([2H])c1cccc2cccc(N3CCc4c(nc(OC[C@@H]5CCCN5C)nc4N4CCN(C(=O)C=C)C[C@@H]4C)C3)c12 [Compound 8, 1-((S)-3-methyl-4-(7-(8-(methyl-d3)naphthalen-1-yl)-2-(((S)-1-methylpyrrolidin-2-yl)methoxy)-5,6,7,8-tetrahydropyrido[3,4-d]pyrimidin-4-yl)piperazin-1-yl)-2-propen-1-one]
C=C(F)C(=O)N1CCN(c2nc(OC[C@@H]3CCCN3C)nc3c2CCN(c2cccc4cccc([11CH3])c24)C3)C[C@@H]1CC#N [Compound 9, 2-((S)-1-(2-fluoroacryloyl)-4-(7-(8-(methyl-^11C)naphthalen-1-yl)-2-(((S)-1-methylpyrrolidin-2-yl)methoxy)-5,6,7,8-tetrahydropyrido[3,4-d]pyrimidin-4-yl)piperazin-2-yl)acetonitrile]
C=CC(=O)N1CCN(c2nc(OC[C@@H]3CCCN3C)nc3c2CCN(c2cccc4cccc([13CH3])c24)C3)C[C@@H]1CC#N [Compound 10, 2-((S)-1-acryloyl-4-(7-(8-(methyl-^13C)naphthalen-1-yl)-2-(((S)-1-methylpyrrolidin-2-yl)methoxy)-5,6,7,8-tetrahydropyrido[3,4-d]pyrimidin-4-yl)piperazin-2-yl)acetonitrile]
C=C(F)C(=O)N1CCN(c2nc(OC[C@@H]3CCCN3C)nc3c2CCN(c2cccc4cccc([13CH3])c24)C3)C[C@@H]1CC#N [Compound 11, 2-((S)-1-(2-fluoroacryloyl)-4-(7-(8-(methyl-^13C)naphthalen-1-yl)-2-(((S)-1-methylpyrrolidin-2-yl)methoxy)-5,6,7,8-tetrahydropyrido[3,4-d]pyrimidin-4-yl)piperazin-2-yl)acetonitrile]
C=CC(=O)N1CCN(c2nc(OC[C@@H]3CCCN3C)nc3c2CCN(c2cccc4cccc([14CH3])c24)C3)C[C@@H]1CC#N [Compound 12, 2-((S)-1-acryloyl-4-(7-(8-(methyl-^14C)naphthalen-1-yl)-2-(((S)-1-methylpyrrolidin-2-yl)methoxy)-5,6,7,8-tetrahydropyrido[3,4-d]pyrimidin-4-yl)piperazin-2-yl)acetonitrile]
C=C(F)C(=O)N1CCN(c2nc(OC[C@@H]3CCCN3C)nc3c2CCN(c2cccc4cccc([14CH3])c24)C3)C[C@@H]1CC#N [Compound 13, 2-((S)-1-(2-fluoroacryloyl)-4-(7-(8-(methyl-^14C)naphthalen-1-yl)-2-(((S)-1-methylpyrrolidin-2-yl)methoxy)-5,6,7,8-tetrahydropyrido[3,4-d]pyrimidin-4-yl)piperazin-2-yl)acetonitrile]
C=C(F)C(=O)N1CCN(c2nc(OC[C@@H]3CCCN3C)nc3c2CCN(c2cncc4cccc([14CH3])c24)C3)C[C@@H]1CC#N [Compound 14, 2-((S)-1-(2-fluoroacryloyl)-4-(7-(5-(methyl-^14C)isoquinolin-4-yl)-2-(((S)-1-methylpyrrolidin-2-yl)methoxy)-5,6,7,8-tetrahydropyrido[3,4-d]pyrimidin-4-yl)piperazin-2-yl)acetonitrile]
C=CC(=O)N1CCN(c2nc(OC[C@@H]3CCCN3C)nc3c2CCN(c2cncc4cccc([13CH3])c24)C3)C[C@@H]1CC#N [Compound 15, 2-((S)-1-acryloyl-4-(7-(5-(methyl-^13C)isoquinolin-4-yl)-2-(((S)-1-methylpyrrolidin-2-yl)methoxy)-5,6,7,8-tetrahydropyrido[3,4-d]pyrimidin-4-yl)piperazin-2-yl)acetonitrile]
C=C(F)C(=O)N1CCN(c2nc(OC[C@@H]3CCCN3C)nc3c2CCN(c2cncc4cccc([13CH3])c24)C3)C[C@@H]1CC#N [Compound 16, 2-((S)-1-(2-fluoroacryloyl)-4-(7-(5-(methyl-^13C)isoquinolin-4-yl)-2-(((S)-1-methylpyrrolidin-2-yl)methoxy)-5,6,7,8-tetrahydropyrido[3,4-d]pyrimidin-4-yl)piperazin-2-yl)acetonitrile]
[2H]C([2H])([2H])N1CCC[C@H]1COc1nc2c(c(N3CCN(C(=O)/C=C/CNC4CC4)[C@@H](CC#N)C3)n1)CCN(c1cccc3cccc(C)c13)C2 [Compound 19, 2-((S)-1-((E)-4-(cyclopropylamino)-2-butenoyl)-4-(2-(((S)-1-(methyl-d3)pyrrolidin-2-yl)methoxy)-7-(8-methylnaphthalen-1-yl)-5,6,7,8-tetrahydropyrido[3,4-d]pyrimidin-4-yl)piperazin-2-yl)acetonitrile]
[2H]C([2H])([2H])N1CCC[C@H]1COc1nc2c(c(N3CCN(C(=O)C=C)[C@@H](CC#N)C3)n1)CCN(c1cncc3cccc(Cl)c13)C2 [Compound 20, 2-((S)-1-acryloyl-4-(7-(5-chloroisoquinolin-4-yl)-2-(((S)-1-(methyl-d3)pyrrolidin-2-yl)methoxy)-5,6,7,8-tetrahydropyrido[3,4-d]pyrimidin-4-yl)piperazin-2-yl)acetonitrile]
[2H]C([2H])([2H])c1cccc2cccc(N3CCc4c(nc(OC[C@@H]5CCCN5C([2H])([2H])[2H])nc4N4CCN(C(=O)C=C)[C@@H](C)C4)C3)c12 [Compound 21, 1-((S)-2-methyl-4-(7-(8-(methyl-d3)naphthalen-1-yl)-2-(((S)-1-(methyl-d3)pyrrolidin-2-yl)methoxy)-5,6,7,8-tetrahydropyrido[3,4-d]pyrimidin-4-yl)piperazin-1-yl)-2-propen-1-one]
[2H]C([2H])([2H])N1CCC[C@H]1COc1nc2c(c(N3CCN(C(=O)C=C)[C@@H](CC#N)C3)n1)CCN(c1cccc3cccc([11CH3])c13)C2 [Compound 22, 2-((S)-1-acryloyl-4-(2-(((S)-1-(methyl-d3)pyrrolidin-2-yl)methoxy)-7-(8-(methyl-^11C)naphthalen-1-yl)-5,6,7,8-tetrahydropyrido[3,4-d]pyrimidin-4-yl)piperazin-2-yl)acetonitrile]
[2H]C([2H])([2H])c1cccc2cccc(N3CCc4c(nc(OC[C@@H]5CCCN5C([2H])([2H])[2H])nc4N4CCN(C(=O)C(=C)F)C[C@@H]4C)C3)c12 [Compound 23, 2-fluoro-1-((S)-3-methyl-4-(7-(8-(methyl-d3)naphthalen-1-yl)-2-(((S)-1-(methyl-d3)pyrrolidin-2-yl)methoxy)-5,6,7,8-tetrahydropyrido[3,4-d]pyrimidin-4-yl)piperazin-1-yl)-2-propen-1-one]
